Assay results as given in ChEMBL document CHEMBL5543127, “Design, Synthesis, and Biological Evaluation of 2-Phenoxyalkylhydrazide Benzoxazole Derivatives as Quorum Sensing Inhibitors with Strong Antibiofilm Effect” (J Med Chem, 2024).
Values after ≈ are worked out from the molar mass of the structure shown. Active and inactive are the calls of the source. No cut-off for these calls is given here.

Assays:
Pseudomonas aeruginosa [1] = test: Induction of anti-bacterial effect in Pseudomonas aeruginosa PAO1 assessed as synergistic effect by measuring reduction in bacterial survival in presence of ciprofloxacin at 16 to 128 microg/ml measured after 24 hrs incubation; assay type: functional, organism-based; conditions: dose 16-128 µg/ml
Pseudomonas aeruginosa [2] = test: Antibiofilm activity against logarithmic growth phase Pseudomonas aeruginosa PAO1 assessed as inhibition of biofilm formation at 16 microg/ml incubated for 20 hrs by crystal violet staining based analysis; assay type: functional; conditions: for inhibition: dose 16.0 µg/ml
Bacillus subtilis = test: Anti-microbial activity against Bacillus subtilis ATCC9372 incubated for 20 hrs By CLSI based micro-dilution method; assay type: functional
Staphylococcus aureus [3] = test: Anti-microbial activity against methicillin-resistant Staphylococcus aureus ATCC43300 incubated for 20 hrs By CLSI based micro-dilution method; assay type: functional
Pseudomonas aeruginosa [4] = test: Induction of anti-bacterial effect in Pseudomonas aeruginosa PAO1 assessed as synergistic effect by measuring reduction in bacterial survival in presence of clarithromycin at 16 to 128 microg/ml measured after 24 hrs incubation; assay type: functional, organism-based; conditions: dose 16-128 µg/ml
[5] = Inhibition of quorum sensing system in Pseudomonas aeruginosa PAO1 at logarithmic growth period assessed as inhibition of pyocyanin production at 102.4 microg/ml incubated for 18 hrs by pyocyanin inhibition assay; conditions: dose 102.4 µg/ml
Pseudomonas aeruginosa [6] = test: Anti-microbial activity against Pseudomonas aeruginosa PAO1 incubated for 20 hrs By CLSI based micro-dilution method; assay type: functional
Pseudomonas aeruginosa [7] = test: Inhibition of protease in logarithmic growth phase Pseudomonas aeruginosa PAO1 assessed as inhibition rate at 102.4 microg/ml measured after 32 hrs; conditions: dose 102.4 µg/ml
Pseudomonas aeruginosa [8] = test: Induction of anti-bacterial effect in Pseudomonas aeruginosa PAO1 assessed as synergistic effect by measuring reduction in bacterial survival in presence of ciprofloxacin at 128 microg/ml measured after 24 hrs incubation relative to control; assay type: functional; conditions: dose 128 µg/ml
Staphylococcus aureus [9] = test: Anti-microbial activity against erythromycin-susceptible Staphylococcus aureus ATCC25923 incubated for 20 hrs By CLSI based micro-dilution method; assay type: functional
Pseudomonas aeruginosa [10] = test: Induction of anti-bacterial effect in Pseudomonas aeruginosa PAO1 assessed as synergistic effect by measuring reduction in bacterial survival in presence of clarithromycin measured after 24 hrs incubation; assay type: functional, organism-based; conditions: dose 8-128 µg/ml
Pseudomonas aeruginosa [11] = test: Induction of anti-bacterial effect in Pseudomonas aeruginosa PAO1 assessed as synergistic effect by measuring reduction in bacterial survival in presence of ciprofloxacin measured after 24 hrs incubation; assay type: functional, organism-based; conditions: dose 8-128 µg/ml
Pseudomonas aeruginosa [12] = test: Anti-microbial activity against penicillin-susceptible Pseudomonas aeruginosa 27853 incubated for 20 hrs By CLSI based micro-dilution method; assay type: functional
Bacillus pumilus = test: Anti-microbial activity against Bacillus pumilus CMCC63202 incubated for 20 hrs By CLSI based micro-dilution method; assay type: functional
Erythrocyte = test: Hemolytic activity in mouse RBC isolated from eye ball assessed as hemolysis at 256 microg/ml incubated for 1 hr; assay type: toxicity, cell-based; conditions: dose 256 µg/ml
Pseudomonas aeruginosa [13] = test: Antibiofilm activity against logarithmic growth phase Pseudomonas aeruginosa PAO1 assessed as inhibition of biofilm formation at 32 microg/ml incubated for 20 hrs by crystal violet staining based analysis; assay type: functional
Escherichia coli = test: Anti-microbial activity against penicillin-susceptible Escherichia coli ATCC25922 incubated for 20 hrs By CLSI based micro-dilution method; assay type: functional
Pseudomonas aeruginosa [14] = test: Anti-virulence activity against logarithmic growth phase Pseudomonas aeruginosa PAO1 assessed as inhibition of Rhamnolipid production at 102.4 microg/ml measured after 24 hrs; assay type: functional
Pseudomonas aeruginosa [15] = test: Antibacterial activity against Pseudomonas aeruginosa 27853 at logarithmic growth phase assessed as growth inhibition at 153.6 microg/ml measured upto 25 hrs by growth curve assay; assay type: functional, organism-based; conditions: dose 153.6 µg/ml
Pseudomonas aeruginosa [16] = test: Antibacterial activity against Pseudomonas aeruginosa PAO1 at logarithmic growth phase assessed as growth inhibition at 153.6 microg/ml measured upto 25 hrs by growth curve assay; assay type: functional, organism-based; conditions: dose 153.6 µg/ml

SMILES	inhibition (Pseudomonas aeruginosa [2])	MIC (Bacillus subtilis)	MIC (Staphylococcus aureus [3])	inhibition [5]	MIC (Pseudomonas aeruginosa [6])	inhibition (Pseudomonas aeruginosa [7])	MIC (Staphylococcus aureus [9])	Activity (Pseudomonas aeruginosa [10])	Activity (Pseudomonas aeruginosa [11])	MIC (Pseudomonas aeruginosa [12])	MIC (Bacillus pumilus)	inhibition at 32 µg/mL (Pseudomonas aeruginosa [13])	MIC (Escherichia coli)	inhibition at 102.4 µg/mL (Pseudomonas aeruginosa [14])	Activity (Pseudomonas aeruginosa [15])	Activity (Pseudomonas aeruginosa [16])	other results
O=C(CCCCOc1ccc(Cl)cc1)NNc1nc2ccccc2o1	Active	512 µg/mL (≈ 1420 µM)	512 µg/mL (≈ 1420 µM)	Active	> 512 µg/mL	inactive	128 µg/mL (≈ 356 µM)	Dose-Dependent Effect	Dose-Dependent Effect	512 µg/mL (≈ 1420 µM)	> 512 µg/mL	> 25.4%	> 512 µg/mL				Activity (Pseudomonas aeruginosa [1]): Active; Activity (Pseudomonas aeruginosa [4]): Active; Activity (Pseudomonas aeruginosa [8]): >90%; Activity (Erythrocyte): Non-Toxic
O=C(CCCCOc1ccc(F)cc1)NNc1nc2ccc(Cl)cc2o1	Active	512 µg/mL (≈ 1360 µM)	256 µg/mL (≈ 678 µM)	Active	> 512 µg/mL	inactive	512 µg/mL (≈ 1360 µM)			> 512 µg/mL	256 µg/mL (≈ 678 µM)	> 25.4%	> 512 µg/mL	> 40%			
O=C(CCCCOc1ccc(Cl)cc1)NNc1nc2ccc(Cl)cc2o1	Active	512 µg/mL (≈ 1300 µM)	256 µg/mL (≈ 649 µM)	Active	> 512 µg/mL	inactive	256 µg/mL (≈ 649 µM)	Dose-Dependent Effect	Dose-Dependent Effect	> 512 µg/mL	256 µg/mL (≈ 649 µM)	> 25.4%	> 512 µg/mL	> 40%			
Cc1cccc2sc(NNC(=O)CCCCOc3ccc(F)cc3)nc12	Active	512 µg/mL (≈ 1370 µM)	512 µg/mL (≈ 1370 µM)	Active	> 512 µg/mL	> 20%	512 µg/mL (≈ 1370 µM)	Dose-Dependent Effect	Dose-Dependent Effect	> 512 µg/mL	512 µg/mL (≈ 1370 µM)	> 25.4%	> 512 µg/mL		inactive	inactive	
Cc1ccc(OCC(=O)NNc2nc3ccccc3o2)cc1		512 µg/mL (≈ 1720 µM)	512 µg/mL (≈ 1720 µM)	inactive	> 512 µg/mL	13.9%	512 µg/mL (≈ 1720 µM)			512 µg/mL (≈ 1720 µM)	> 512 µg/mL		> 512 µg/mL		inactive	inactive	
O=C(CCCCOc1ccc(Cl)cc1)NNc1nc2ccccc2s1	Active	> 512 µg/mL	512 µg/mL (≈ 1360 µM)	Active	> 512 µg/mL		256 µg/mL (≈ 681 µM)			> 512 µg/mL	256 µg/mL (≈ 681 µM)	> 25.4%	> 512 µg/mL	> 40%	inactive	inactive	
Cc1ccc(C(=O)NNc2nc3ccccc3s2)cc1	Active	512 µg/mL (≈ 1810 µM)	256 µg/mL (≈ 903 µM)	62.8%	> 512 µg/mL	> 20%	512 µg/mL (≈ 1810 µM)	Dose-Dependent Effect	Dose-Dependent Effect	512 µg/mL (≈ 1810 µM)	256 µg/mL (≈ 903 µM)	> 25.4%	> 512 µg/mL		inactive	inactive	Activity (Erythrocyte): Non-Toxic
O=C1C=C(Br)/C(=C\Br)O1		64 µg/mL (≈ 252 µM)	128 µg/mL (≈ 504 µM)		128 µg/mL (≈ 504 µM)		32 µg/mL (≈ 126 µM)			256 µg/mL (≈ 1010 µM)	256 µg/mL (≈ 1010 µM)		256 µg/mL (≈ 1010 µM)	44.9%			
Cn1/c(=N/NC(=O)c2cccc(Cl)c2)sc2ccccc21	Active	> 512 µg/mL	> 512 µg/mL	40.1%	> 512 µg/mL	> 20%	> 512 µg/mL			> 512 µg/mL	> 512 µg/mL	> 25.4%	> 512 µg/mL		inactive	inactive	
O=C(COc1ccc(Cl)cc1)NNc1nc2ccccc2o1		512 µg/mL (≈ 1610 µM)	256 µg/mL (≈ 806 µM)	46.9%	> 512 µg/mL	10%	512 µg/mL (≈ 1610 µM)	Dose-Dependent Effect	Dose-Dependent Effect	512 µg/mL (≈ 1610 µM)	> 512 µg/mL	> 25.4%	> 512 µg/mL		inactive	inactive	inhibition at 16 µg/mL (Pseudomonas aeruginosa [2]): > 50%
O=C(COc1cccc(F)c1)NNc1nc2ccccc2o1		512 µg/mL (≈ 1700 µM)	> 512 µg/mL	inactive	512 µg/mL (≈ 1700 µM)	10%	512 µg/mL (≈ 1700 µM)			512 µg/mL (≈ 1700 µM)	> 512 µg/mL		> 512 µg/mL		inactive	inactive	
O=C(CCCOc1cccc(C(F)(F)F)c1)NNc1nc2ccccc2o1	Active	512 µg/mL (≈ 1350 µM)	512 µg/mL (≈ 1350 µM)	inactive	> 512 µg/mL	30%	256 µg/mL (≈ 675 µM)	Dose-Dependent Effect	Dose-Dependent Effect	256 µg/mL (≈ 675 µM)	> 512 µg/mL	> 25.4%	> 512 µg/mL	> 40%	inactive	inactive	
COc1ccc(OCCCC(=O)NNc2nc3ccccc3o2)cc1	Active	512 µg/mL (≈ 1500 µM)	128 µg/mL (≈ 375 µM)	inactive	> 512 µg/mL	30%	64 µg/mL (≈ 187 µM)			128 µg/mL (≈ 375 µM)	512 µg/mL (≈ 1500 µM)	> 25.4%	> 512 µg/mL	> 40%			
COc1ccc(/C=N/Nc2nc3ccccc3o2)cc1OC	Active	512 µg/mL (≈ 1720 µM)	256 µg/mL (≈ 861 µM)	40.3%	> 512 µg/mL	21.9%	128 µg/mL (≈ 431 µM)			> 512 µg/mL	256 µg/mL (≈ 861 µM)	> 25.4%	> 512 µg/mL		inactive	inactive	
O=C(CCCOc1ccc(C(F)(F)F)cc1)NNc1nc2ccccc2o1	Active	512 µg/mL (≈ 1350 µM)	256 µg/mL (≈ 675 µM)	inactive	> 512 µg/mL	30%	256 µg/mL (≈ 675 µM)	Dose-Dependent Effect	Dose-Dependent Effect	256 µg/mL (≈ 675 µM)	> 512 µg/mL	> 25.4%	> 512 µg/mL	> 40%	inactive	inactive	Activity (Erythrocyte): Non-Toxic
COc1ccc(OCCCCC(=O)NNc2nc3ccccc3o2)cc1	Active	512 µg/mL (≈ 1440 µM)	> 512 µg/mL	Active	> 512 µg/mL	14.6%	512 µg/mL (≈ 1440 µM)	Dose-Dependent Effect	Dose-Dependent Effect	512 µg/mL (≈ 1440 µM)	> 512 µg/mL	> 25.4%	> 512 µg/mL	52.1%			Activity (Erythrocyte): Non-Toxic
O=C(NNc1nc2ccccc2s1)c1ccccc1F	Active	512 µg/mL (≈ 1780 µM)	> 512 µg/mL	62.8%	> 512 µg/mL	> 20%	> 512 µg/mL	Dose-Dependent Effect	Dose-Dependent Effect	512 µg/mL (≈ 1780 µM)	512 µg/mL (≈ 1780 µM)	> 25.4%	> 512 µg/mL		inactive	inactive	Activity (Erythrocyte): Non-Toxic
O=C(CCCOc1ccc(Cl)cc1)NNc1nc2ccccc2o1	Active	512 µg/mL (≈ 1480 µM)	256 µg/mL (≈ 740 µM)	inactive	> 512 µg/mL	30%	256 µg/mL (≈ 740 µM)	Dose-Dependent Effect	Dose-Dependent Effect	512 µg/mL (≈ 1480 µM)	512 µg/mL (≈ 1480 µM)	> 25.4%	> 512 µg/mL				
